Experimental data reported in publication doi:10.1101/2023.10.03.560722, “Drug Discovery in Low Data Regimes: Leveraging a Computational Pipeline for the Discovery of Novel SARS-CoV-2 Nsp14-MTase Inhibitors” (bioRxiv, 2024).
Where two headings read alike, the source gives them in different places. Where a SMILES comes first, the peptide text is derived from it. [ ]: non-standard residue; d: D form. The star is where a group is joined. Ac5c = NC1(C(=O)O)CCCC1; Cbz = O=C(OCc1ccccc1)*

Legend:
SARS-CoV-2 nsp14 MTase = SARS-CoV-2 nsp14 MTase (Severe acute respiratory syndrome coronavirus 2, UniProt P0DTD1); experiment: biochemical; format: biochemical; conditions: for nsp14 Inhibition % (100µM) Exp 1 / nsp14 Inhibition % (100µM) Exp 2 / inhibition at 100 µM: compound 100µM; for IC50: nsp14 MTase activity, high-throughput screening follow-up
nsp14 = nsp14 (Severe acute respiratory syndrome coronavirus 2, UniProt P0DTD1); experiment: surface plasmon resonance (SPR) binding to immobilized full-length biotinylated nsp14; set-up: species or system SARS-CoV-2
Description: For Surface Plasmon Resonance (SPR), the full-length biotinylated nsp14 was immobilized on the flow cell of a SA sensor chip in 1x HBS-EP buffer, achieving a response of 8000 RU. The assay was performed using the same buffer but with 2% DMSO added. Single-cycle kinetics were employed with a contact time of 60 seconds and a dissociation time of 120 seconds, at a flow rate of 75 µL/min. NSC620333 was tested at a concentration of 10 µM as the highest concentration, and a dilution factor of 0.25 was used to yield five different concentrations.

SARS-CoV-2 = format: cell-based; conditions: Calu-3 cells, lung epithelial SARS-CoV-2 infection model

O=C(O)c1ccc(C(=O)c2ccc(C(=O)c3ccc(C(=O)O)cc3)cc2)cc1 [NSC2269]
nsp14 Inhibition % (100µM) Exp 1 (SARS-CoV-2 nsp14 MTase; replicate experiment 1): 64% | nsp14 Inhibition % (100µM) Exp 2 (SARS-CoV-2 nsp14 MTase; replicate experiment 2): 60% | IC50 (SARS-CoV-2 nsp14 MTase; read-out: IC50): 27 µM

O=C(CN1CCOCC1)C(O)C(O)C(O)CO (stereo not drawn) [NSC4348]
nsp14 Inhibition % (100µM) Exp 1 (SARS-CoV-2 nsp14 MTase; replicate experiment 1): 73% | nsp14 Inhibition % (100µM) Exp 2 (SARS-CoV-2 nsp14 MTase; replicate experiment 2): 61% | IC50 (SARS-CoV-2 nsp14 MTase; read-out: IC50): 34 µM

O=C(O)c1nc(N=Nc2ccc(S(=O)(=O)O)cc2)[nH]c1C(=O)O [NSC4624]
nsp14 Inhibition % (100µM) Exp 1 (SARS-CoV-2 nsp14 MTase; replicate experiment 1): 65% | nsp14 Inhibition % (100µM) Exp 2 (SARS-CoV-2 nsp14 MTase; replicate experiment 2): 47%

O=C(N/N=C/[C@H](O)[C@H]1OC(=O)[C@@H](O)[C@H]1O)c1ccncc1 [NSC27605]
nsp14 Inhibition % (100µM) Exp 1 (SARS-CoV-2 nsp14 MTase; replicate experiment 1): 26% | nsp14 Inhibition % (100µM) Exp 2 (SARS-CoV-2 nsp14 MTase; replicate experiment 2): 10%

OCC(O)C(O)C(O)C(O)c1nc2ccccc2s1 (stereo not drawn) [NSC34443]
nsp14 Inhibition % (100µM) Exp 1 (SARS-CoV-2 nsp14 MTase; replicate experiment 1): 86% | nsp14 Inhibition % (100µM) Exp 2 (SARS-CoV-2 nsp14 MTase; replicate experiment 2): 81% | IC50 (SARS-CoV-2 nsp14 MTase; read-out: IC50): 57 µM

O=C(NNCNNC(=O)c1ccncc1)c1ccncc1 [NSC39302]
nsp14 Inhibition % (100µM) Exp 1 (SARS-CoV-2 nsp14 MTase; replicate experiment 1): 7% | nsp14 Inhibition % (100µM) Exp 2 (SARS-CoV-2 nsp14 MTase; replicate experiment 2): −2%

Nc1nc2nn(-c3ccc(C(=O)NC(CCC(=O)O)C(=O)O)cc3)nc2c(=O)[nH]1 (stereo not drawn) [NSC44037]
nsp14 Inhibition % (100µM) Exp 1 (SARS-CoV-2 nsp14 MTase; replicate experiment 1): 15% | nsp14 Inhibition % (100µM) Exp 2 (SARS-CoV-2 nsp14 MTase; replicate experiment 2): 9%

OCCNc1ncnc2c1ncn2[C@@H]1O[C@H](CO)[C@@H](O)[C@H]1O [NSC54251]
nsp14 Inhibition % (100µM) Exp 1 (SARS-CoV-2 nsp14 MTase; replicate experiment 1): 4% | nsp14 Inhibition % (100µM) Exp 2 (SARS-CoV-2 nsp14 MTase; replicate experiment 2): −4%

O=C1C2C3C=CC(O3)C2C(=O)N1/N=C/C(O)C(O)C(O)C(O)CO (stereo not drawn) [NSC60360]
nsp14 Inhibition % (100µM) Exp 1 (SARS-CoV-2 nsp14 MTase; replicate experiment 1): 4% | nsp14 Inhibition % (100µM) Exp 2 (SARS-CoV-2 nsp14 MTase; replicate experiment 2): −4%

O=c1cc(-c2ccc(O)cc2)oc2c(O)c(O)c(O)c(O)c12 [NSC76988]
IC50 (SARS-CoV-2 nsp14 MTase; IC50 (µM)): 6 µM | inhibition at 100 µM (SARS-CoV-2 nsp14 MTase; replicate experiment 1, read-out: nsp14 Inhibition % (100µM) Exp 1): 100% | inhibition at 100 µM (SARS-CoV-2 nsp14 MTase; replicate experiment 2, read-out: nsp14 Inhibition % (100µM) Exp 2): 99% | direct binding to nsp14 (nsp14): no direct binding was detected | anti-SARS-CoV-2 activity (SARS-CoV-2): demonstrated anti-SARS-CoV-2 activity

O=C1C=C(O)C(=C/C=C/C=C/c2c(O)cc(O)cc2O)C(O)=C1 [NSC77131]
nsp14 Inhibition % (100µM) Exp 1 (SARS-CoV-2 nsp14 MTase; replicate experiment 1): 99% | nsp14 Inhibition % (100µM) Exp 2 (SARS-CoV-2 nsp14 MTase; replicate experiment 2): 99% | IC50 (SARS-CoV-2 nsp14 MTase; read-out: IC50): 9 µM

Nc1ncnc2c1ncn2[C@H]1C[C@H](O)[C@@H](COP(=O)(O)O)O1 [NSC77680]
nsp14 Inhibition % (100µM) Exp 1 (SARS-CoV-2 nsp14 MTase; replicate experiment 1): 13% | nsp14 Inhibition % (100µM) Exp 2 (SARS-CoV-2 nsp14 MTase; replicate experiment 2): 7%

O=C(O)CNC(=O)C1(NC(=O)CNC(=O)OCc2ccccc2)CCCC1 [NSC80136] (Cbz-Gly-[Ac5c]-Gly-OH)
nsp14 Inhibition % (100µM) Exp 1 (SARS-CoV-2 nsp14 MTase; replicate experiment 1): 13% | nsp14 Inhibition % (100µM) Exp 2 (SARS-CoV-2 nsp14 MTase; replicate experiment 2): 2%

O=C(CCCCn1ccc(=O)[nH]c1=O)Nc1ccc(C(=O)O)c(O)c1 [NSC92432]
nsp14 Inhibition % (100µM) Exp 1 (SARS-CoV-2 nsp14 MTase; replicate experiment 1): 6% | nsp14 Inhibition % (100µM) Exp 2 (SARS-CoV-2 nsp14 MTase; replicate experiment 2): −1%

CN(CC(O)C(O)C(O)C(O)CO)CN1C(=O)C(=O)c2ccccc21 (stereo not drawn) [NSC99790]
nsp14 Inhibition % (100µM) Exp 1 (SARS-CoV-2 nsp14 MTase; replicate experiment 1): 46% | nsp14 Inhibition % (100µM) Exp 2 (SARS-CoV-2 nsp14 MTase; replicate experiment 2): 36%

O=S(=O)(O)c1cc(Cl)cc(N=Nc2ccc(O)cc2O)c1O [NSC102798]
nsp14 Inhibition % (100µM) Exp 1 (SARS-CoV-2 nsp14 MTase; replicate experiment 1): 77% | nsp14 Inhibition % (100µM) Exp 2 (SARS-CoV-2 nsp14 MTase; replicate experiment 2): 74%

OC1COC(n2cnc3c(=S)nc[nH]c32)C(O)C1O (stereo not drawn) [NSC107661]
nsp14 Inhibition % (100µM) Exp 1 (SARS-CoV-2 nsp14 MTase; replicate experiment 1): 18% | nsp14 Inhibition % (100µM) Exp 2 (SARS-CoV-2 nsp14 MTase; replicate experiment 2): 7%

Nc1ncnc2c1ncn2C1OC(CO)C(NC(=O)C(N)Cc2ccccc2)C1O (stereo not drawn) [NSC114010]
nsp14 Inhibition % (100µM) Exp 1 (SARS-CoV-2 nsp14 MTase; replicate experiment 1): 11% | nsp14 Inhibition % (100µM) Exp 2 (SARS-CoV-2 nsp14 MTase; replicate experiment 2): −3%

NC(CCC(=O)NC(CSCc1ccc(F)cc1)C(=O)NCC(=O)O)C(=O)O (stereo not drawn) [NSC131119]
nsp14 Inhibition % (100µM) Exp 1 (SARS-CoV-2 nsp14 MTase; replicate experiment 1): 8% | nsp14 Inhibition % (100µM) Exp 2 (SARS-CoV-2 nsp14 MTase; replicate experiment 2): 0%
